Values of other authors in patent publication US20250375396A1 (priority 2016, published 2025).
Counter-ions that a name gives are not always drawn.

Settings: for Equilibrium Constant of Acid Amine (pKa(acid amine)): conjugated acid amine

Compound | Equilibrium Constant of Acid Amine (pKa(acid amine)) | pKa
CCCN(CCC)CCc1cccc2c1CC(=O)N2 [Ropinirole HCl] | 9.68 | –
CCOc1ccccc1OCCN[C@H](C)Cc1ccc(OC)c(S(N)(=O)=O)c1 [Tamsulosin HCl] | 8.37 | –
O=C([O-])[O-].[Na+].[Na+] [Sodium carbonate] | – | 10.3
CCN(C)C(=O)Oc1cccc([C@H](C)N(C)C)c1 [Rivastigmine HCl] | 8.85 | –
COC(=O)C(c1ccccc1)C1CCCCN1 (stereo not drawn) [Methyl phenidate HCl] | 8.77 | –
CCCN(CCc1cccs1)[C@H]1CCc2c(O)cccc2C1 [Rotigotine HCl] | 7.90 | –
